Patent US7232837B2, “Stereoisomers with high affinity for adrenergic receptors” (McNeil-PPC, Inc., priority 1999, dated 2007)

Legend:
Swiss-Webster mice [1] = assay: H1 receptor antagonist (triprolidine) interaction study, locomotor activity in mice; settings: mice pretreated with triprolidine 20 min before the test compound
Protocol: H1 receptor antagonist interaction studies. […] The mice were immediately placed in the activity testing chamber for a 2-h session. Doses of the test compound were selected from the ascending or descending time of the dose-effect curve determined from the compound-alone studies. Eight mice were tested for each triprolidine/test compound combination.
Statistical analysis. Time course data for each compound were considered in 2-way analyses of variance with dose as a between-group and time as a within-group factor. The dose-effect data were considered in 1-way analyses of variance, and planned individual comparisons were conduced between each dose and the saline control group. Interaction studies were considered in 2-way analyses of variance, with Pretreatment and Test dose as the factors.

[2] = test system: New Zealand white rabbits; assay: Intraocular pressure (IOP) after topical application to the rabbit eye; assay type: in vivo; settings: for IOP: mean ± S.E.
Protocol: (§1) These diastereomers were administered topically as either 1% or 2% solutions in buffered saline. Pupillary diameter and IOP were measured in all animals over a six hour time period during the day to minimize diurnal variations in IOP and pupil diameter.
(§2) The experiments were performed on adult male New Zealand white rabbits weighing 3.0–6.0 kg. All rabbits were caged individually and maintained on a 12 hr/12 hr light/dark schedule with free access to food and water. All animal procedures were in conformity with the ARVO Resolution on the Use and Care of Animals in Research. All treated rabbits had served as controls by having received a saline treatment on a different day.
(§3) Only one eye received drug treatment. The contralateral eye served as a control. Saline (or PBS) and drug treated rabbits were treated and observed simultaneously. A single dose was given at time zero and IOP and pupil diameter measured at −1.0, −0.5, 0.5, 1, 3 and 5 hrs post-treatment.
IOP measurements were recorded with an Alcon Applanation Pneumotonograph (Surgical Products Division, Alcon Laboratories, Inc., Ft. Worth, Tex.) in rabbits placed in Lucite restraining cages. Initial topical application of a two drop 0.5% proparacaine HCl (Ophthetic®, Allergan Pharmaceuticals, Inc.) was performed on each rabbit.
(§4) Mean and Standard Error values were used to construct time-response and dose-response curves for the treated and contralateral eye of research rabbits. The data were analyzed statistically by an analysis of variance and a Bonferoni's test for significance. P<0.05 was the accepted level of significance.

Swiss-Webster mice [3] = assay: Locomotor stimulant and depressant effects in mice; settings: i.p.
[4] = test system: New Zealand white rabbits; assay: Pupil diameter / mydriasis after topical application to the rabbit eye; assay type: in vivo; settings: for Pupil Diameter: mean ± S.E.
Protocol: as §1, §2, §3
Pupil diameter was measured visually at the point of the greatest horizontal diameter with a transparent millimeter ruler. All measurements were made under the identical ambient lighting conditions.
as §4

[5] = 1% topical, drug treated eye (T), 0.5 hr
[6] = 1% topical, drug treated eye (T), 1 hr
[7] = 1% topical, drug treated eye (T), 3 hr
[8] = 1% topical, drug treated eye (T), 5 hr
[9] = 1% topical, drug treated eye (T), −0.5 hr (pre-treatment)
[10] = 1% topical, drug treated eye (T), −1 hr (pre-treatment)
[11] = 1% topical, untreated contralateral eye (U), 0.5 hr
[12] = 1% topical, untreated contralateral eye (U), 1 hr
[13] = 1% topical, untreated contralateral eye (U), 3 hr
[14] = 1% topical, untreated contralateral eye (U), 5 hr
[15] = 1% topical, untreated contralateral eye (U), −0.5 hr (pre-treatment)
[16] = 1% topical, untreated contralateral eye (U), −1 hr (pre-treatment)
[17] = 2% topical, drug treated eye (T), 0.5 hr
[18] = 2% topical, drug treated eye (T), 1 hr
[19] = 2% topical, drug treated eye (T), 3 hr
[20] = 2% topical, drug treated eye (T), 5 hr
[21] = 2% topical, drug treated eye (T), −0.5 hr (pre-treatment)
[22] = 2% topical, drug treated eye (T), −1 hr (pre-treatment)
[23] = 2% topical, untreated contralateral eye (U), 0.5 hr
[24] = 2% topical, untreated contralateral eye (U), 1 hr
[25] = 2% topical, untreated contralateral eye (U), 3 hr
[26] = 2% topical, untreated contralateral eye (U), 5 hr
[27] = 2% topical, untreated contralateral eye (U), −0.5 hr (pre-treatment)
[28] = 2% topical, untreated contralateral eye (U), −1 hr (pre-treatment)
[29] = — denotes absence of significant effect

(−)-norpseudoephedrine
effect of triprolidine pretreatment on stimulant or depressant effects (Swiss-Webster mice [1]): Significant effects for pretreatment with triprolidine
effect on IOP (result in words) ([2]; 1% or 2% topical, rabbit): accompanying increase in IOP
IOP [2, 5]: 17 ± 1.0 mmHg
IOP [2, 6]: 17 ± 1.5 mmHg
IOP [2, 7]: 21 ± 1.6 mmHg
IOP [2, 8]: 18 ± 1.0 mmHg
IOP [2, 9]: 18 ± 1.6 mmHg
IOP [2, 10]: 17 ± 1.0 mmHg
IOP [2, 11]: 21 ± 1.0 mmHg
IOP [2, 12]: 18 ± 1.6 mmHg
IOP [2, 13]: 20 ± 1.9 mmHg
IOP [2, 14]: 23 ± 0.9 mmHg
IOP [2, 15]: 20 ± 1.7 mmHg
IOP [2, 16]: 17 ± 1.5 mmHg
IOP [2, 17]: 15 ± 0.5 mmHg
IOP [2, 18]: 18 ± 0.7 mmHg
IOP [2, 19]: 18 ± 1.1 mmHg
IOP [2, 20]: 18 ± 1.4 mmHg
IOP [2, 21]: 15 ± 0.9 mmHg
IOP [2, 22]: 16 ± 1.9 mmHg
IOP [2, 23]: 16 ± 1.2 mmHg
IOP [2, 24]: 19 ± 1.2 mmHg
IOP [2, 25]: 22 ± 1.5 mmHg
IOP [2, 26]: 21 ± 1.1 mmHg
IOP [2, 27]: 17 ± 0.7 mmHg
IOP [2, 28]: 16 ± 1.0 mmHg
Depression Time: 30-min period following injection in which the maximal depression occurred (Swiss-Webster mice [3]): 10 to 40 min
Stimulation Time: 30-min period following injection in which the maximal stimulant effect occurred (Swiss-Webster mice [3]): 40 to 70 min
locomotor depressant effects, time course (result in words) (Swiss-Webster mice [3]): locomotor depression at an earlier time (10–40 minutes following injection) and with a lower dose range
locomotor stimulant effects, time course (result in words) (Swiss-Webster mice [3]): Dose-dependent increases in locomotor activity of slower onset and longer duration
Depression Potency: dose resulting in ½ the maximal depressant effect (ID50) (Swiss-Webster mice [3]; [29]): 3.9 mg/kg
Stimulation Potency: dose resulting in ½ the maximal stimulant effect (ID50) (Swiss-Webster mice [3]; [29]): 51.1 mg/kg
mydriasis / pupil diameter (result in words) ([4]; 1% or 2% topical, rabbit): significant mydriasis
Mydriatic Responses, TREATED EYE ([4]; 1% topical): + (+ = 0–2 mm change)
Mydriatic Responses, UNTREATED EYE ([4]; 1% topical): + (+ = 0–2 mm change)
Pupil Diameter [4, 5]: 6 ± 0.2 mm
Pupil Diameter [4, 6]: 6 ± 0.2 mm
Pupil Diameter [4, 7]: 6 ± 0.2 mm
Pupil Diameter [4, 8]: 6 ± 0.2 mm
Pupil Diameter [4, 9]: 5 ± 0.2 mm
Pupil Diameter [4, 10]: 5 ± 0.2 mm
Pupil Diameter [4, 11]: 6 ± 0.2 mm
Pupil Diameter [4, 12]: 6 ± 0.2 mm
Pupil Diameter [4, 13]: 6 ± 0.2 mm
Pupil Diameter [4, 14]: 6 ± 0.2 mm
Pupil Diameter [4, 15]: 5 ± 0.2 mm
Pupil Diameter [4, 16]: 5 ± 0.2 mm
Mydriatic Responses, TREATED EYE ([4]; 2% topical): ++ (++ = 2–4 mm change)
Mydriatic Responses, UNTREATED EYE ([4]; 2% topical): ++ (++ = 2–4 mm change)
Pupil Diameter [4, 17]: 9 ± 0.4 mm
Pupil Diameter [4, 18]: 9 ± 0.4 mm
Pupil Diameter [4, 19]: 9 ± 0.4 mm
Pupil Diameter [4, 20]: 9 ± 0.4 mm
Pupil Diameter [4, 21]: 6 ± 0.4 mm
Pupil Diameter [4, 22]: 6 ± 0.4 mm
Pupil Diameter [4, 23]: 9 ± 0.4 mm
Pupil Diameter [4, 24]: 9 ± 0.4 mm
Pupil Diameter [4, 25]: 9 ± 0.4 mm
Pupil Diameter [4, 26]: 9 ± 0.4 mm
Pupil Diameter [4, 27]: 6 ± 0.4 mm
Pupil Diameter [4, 28]: 6 ± 0.4 mm

CNC[C@@H](O)c1cccc(O)c1 [(+)-Phenylephrine, (+)-phenylephrine]
effect of triprolidine pretreatment on stimulant or depressant effects (Swiss-Webster mice [1]): failed to show significant modification of stimulant or depressant effects
IOP [2, 5]: 16 ± 1.5 mmHg
IOP [2, 6]: 16 ± 0.7 mmHg
IOP [2, 7]: 15 ± 0.5 mmHg
IOP [2, 8]: 16 ± 1.0 mmHg
IOP [2, 9]: 18 ± 2.1 mmHg
IOP [2, 10]: 19 ± 1.8 mmHg
IOP [2, 11]: 19 ± 1.8 mmHg
IOP [2, 12]: 17 ± 1.1 mmHg
IOP [2, 13]: 16 ± 1.0 mmHg
IOP [2, 14]: 17 ± 1.7 mmHg
IOP [2, 15]: 19 ± 2.0 mmHg
IOP [2, 16]: 21 ± 2.0 mmHg
IOP [2, 17]: 20 ± 1.7 mmHg
IOP [2, 18]: 19 ± 1.8 mmHg
IOP [2, 19]: 19 ± 2.2 mmHg
IOP [2, 20]: 16 ± 2.4 mmHg
IOP [2, 21]: 19 ± 0.8 mmHg
IOP [2, 22]: 19 ± 0.9 mmHg
IOP [2, 23]: 21 ± 1.7 mmHg
IOP [2, 24]: 22 ± 2.2 mmHg
IOP [2, 25]: 20 ± 1.8 mmHg
IOP [2, 26]: 18 ± 1.9 mmHg
IOP [2, 27]: 19 ± 2.2 mmHg
IOP [2, 28]: 19 ± 1.6 mmHg
Depression Time: 30-min period following injection in which the maximal depression occurred (Swiss-Webster mice [3]): 0 to 30 min
Stimulation Time: 30-min period following injection in which the maximal stimulant effect occurred (Swiss-Webster mice [3]): 60 to 90 min
locomotor depressant effects, time course (result in words) (Swiss-Webster mice [3]): dose-dependent locomotor depression within 10 to 20 minutes following injection
Depression Potency: dose resulting in ½ the maximal depressant effect (ID50) (Swiss-Webster mice [3]; [29]): 53.3 mg/kg
Pupil Diameter [4, 5]: 6 ± 0.2 mm
Pupil Diameter [4, 6]: 9 ± 0.2 mm
Pupil Diameter [4, 7]: 9 ± 0.2 mm
Pupil Diameter [4, 8]: 9 ± 0.2 mm
Pupil Diameter [4, 9]: 5 ± 0.2 mm
Pupil Diameter [4, 10]: 5 ± 0.2 mm
Pupil Diameter [4, 11]: 6 ± 0.2 mm
Pupil Diameter [4, 12]: 9 ± 0.2 mm
Pupil Diameter [4, 13]: 9 ± 0.2 mm
Pupil Diameter [4, 14]: 9 ± 0.2 mm
Pupil Diameter [4, 15]: 5 ± 0.2 mm
Pupil Diameter [4, 16]: 5 ± 0.2 mm
Pupil Diameter [4, 17]: 6 ± 0.2 mm
Pupil Diameter [4, 18]: 9 ± 0.2 mm
Pupil Diameter [4, 19]: 9 ± 0.2 mm
Pupil Diameter [4, 20]: 9 ± 0.2 mm
Pupil Diameter [4, 21]: 5 ± 0.2 mm
Pupil Diameter [4, 22]: 5 ± 0.2 mm
Pupil Diameter [4, 23]: 6 ± 0.2 mm
Pupil Diameter [4, 24]: 9 ± 0.2 mm
Pupil Diameter [4, 25]: 9 ± 0.2 mm
Pupil Diameter [4, 26]: 9 ± 0.2 mm
Pupil Diameter [4, 27]: 5 ± 0.2 mm
Pupil Diameter [4, 28]: 5 ± 0.2 mm
